66 compounds from patent US12581252B2, “Substituted pyrrolo[3,4-b]pyridines as PI3K-α inhibitors” (Relay Therapeutics, Inc., priority 2020, dated 2026) can be followed below.

Some results are limits rather than exact numbers.

The target of this experiment is H1047R PIK3CA enzyme (Homo sapiens, UniProt P42336, H1047R). Put plainly: ADP-Glo Biochemical PIK3CA Kinase Assay. A general note: ADP-Glo turns the ADP formed in a reaction into a luminescent signal.
Chain of H1047R PIK3CA enzyme (P42336 whole entry H1047R): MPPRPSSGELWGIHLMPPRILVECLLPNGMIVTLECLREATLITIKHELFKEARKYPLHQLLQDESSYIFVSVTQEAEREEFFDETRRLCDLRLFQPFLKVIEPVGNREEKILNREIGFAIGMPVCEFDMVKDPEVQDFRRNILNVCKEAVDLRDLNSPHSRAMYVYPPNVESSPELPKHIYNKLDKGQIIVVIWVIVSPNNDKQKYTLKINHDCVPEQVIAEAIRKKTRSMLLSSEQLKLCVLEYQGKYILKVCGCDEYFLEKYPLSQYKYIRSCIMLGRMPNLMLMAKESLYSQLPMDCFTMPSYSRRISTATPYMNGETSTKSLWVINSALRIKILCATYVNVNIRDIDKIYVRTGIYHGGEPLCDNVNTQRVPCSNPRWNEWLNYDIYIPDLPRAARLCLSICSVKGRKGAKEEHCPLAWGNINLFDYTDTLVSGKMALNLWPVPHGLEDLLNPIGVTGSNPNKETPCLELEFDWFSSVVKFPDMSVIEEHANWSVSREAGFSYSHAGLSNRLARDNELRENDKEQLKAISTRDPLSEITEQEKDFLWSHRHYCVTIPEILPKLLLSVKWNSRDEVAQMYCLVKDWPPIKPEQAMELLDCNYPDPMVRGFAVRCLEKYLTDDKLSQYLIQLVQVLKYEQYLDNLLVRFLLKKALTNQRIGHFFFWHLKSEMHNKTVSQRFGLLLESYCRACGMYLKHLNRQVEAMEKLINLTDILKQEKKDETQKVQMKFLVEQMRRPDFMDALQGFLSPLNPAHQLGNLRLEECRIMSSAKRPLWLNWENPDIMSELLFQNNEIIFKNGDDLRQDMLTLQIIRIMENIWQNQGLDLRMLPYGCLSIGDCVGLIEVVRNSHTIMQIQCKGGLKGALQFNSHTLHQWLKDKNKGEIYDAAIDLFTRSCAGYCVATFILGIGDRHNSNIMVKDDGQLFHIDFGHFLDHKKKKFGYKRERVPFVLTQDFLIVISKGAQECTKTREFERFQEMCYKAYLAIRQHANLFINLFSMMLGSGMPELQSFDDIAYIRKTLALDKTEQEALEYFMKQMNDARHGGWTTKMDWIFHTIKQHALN
Chain of H1047R PIK3CA enzyme (P27986 whole entry partner): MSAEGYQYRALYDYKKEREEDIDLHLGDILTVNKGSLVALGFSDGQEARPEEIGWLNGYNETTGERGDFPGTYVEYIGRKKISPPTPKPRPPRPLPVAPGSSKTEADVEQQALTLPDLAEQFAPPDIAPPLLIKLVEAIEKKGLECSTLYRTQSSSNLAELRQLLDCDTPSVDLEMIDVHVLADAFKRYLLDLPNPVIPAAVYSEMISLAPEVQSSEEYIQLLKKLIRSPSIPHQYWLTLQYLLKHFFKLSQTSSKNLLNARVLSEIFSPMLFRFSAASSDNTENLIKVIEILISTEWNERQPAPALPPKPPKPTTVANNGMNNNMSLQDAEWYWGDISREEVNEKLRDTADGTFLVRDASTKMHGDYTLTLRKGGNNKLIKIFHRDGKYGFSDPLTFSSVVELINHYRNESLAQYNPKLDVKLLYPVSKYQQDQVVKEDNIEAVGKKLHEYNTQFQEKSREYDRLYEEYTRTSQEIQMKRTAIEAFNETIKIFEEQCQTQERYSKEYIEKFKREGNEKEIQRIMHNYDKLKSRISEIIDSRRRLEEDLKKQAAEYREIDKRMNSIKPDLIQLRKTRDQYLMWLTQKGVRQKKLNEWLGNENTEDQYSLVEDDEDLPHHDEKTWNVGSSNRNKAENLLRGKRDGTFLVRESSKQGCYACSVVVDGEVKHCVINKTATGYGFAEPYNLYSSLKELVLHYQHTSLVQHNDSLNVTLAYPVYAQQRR
For the compound `Cc1ccccc1C1NC(=O)c2cccc(NC(=O)c3cc(=O)[nH]c4ccccc34)c21` (stereo not drawn) [Compound I-30], the IC50 (as a rule, the concentration that inhibits the measured activity by half) fell in the range of 10000 to 100000 nM.

As to `O=C1NC(O)(c2cccc(F)c2F)c2c(NC(=O)c3csc4ccccc34)ccnc21` (stereo not drawn) [Compound I-31], the IC50 is 10000 to 100000 nM.

In turn, `O=C1N[C@@H](c2ccccc2Cl)c2c(NC(=O)c3csc4ccccc34)ccnc21` [Compound I-32] yielded an IC50 of 1000 to 10000 nM.

With `Cc1ccccc1C1NC(=O)c2cccc(NC(=O)c3csc4c(F)cccc34)c21` (stereo not drawn) [Compound I-36], the IC50 lay within 100 to 500 nM.

Consider `Cc1ccccc1[C@@H]1NC(=O)c2cccc(NC(=O)c3csc4c(F)cccc34)c21` [Compound I-37], for which the IC50 was in the range of 10000 to 100000 nM.

Consider `Cc1ccccc1C1NC(=O)c2cccc(NC(=O)c3noc4ccccc34)c21` (stereo not drawn) [Compound I-41], for which the IC50 was in the range of 10000 to 100000 nM.

Take `COc1ccc2scc(C(=O)Nc3cccc4c3C(c3ccccc3C)NC4=O)c2c1` (stereo not drawn) [Compound I-42]: the IC50 lay within 1000 to 10000 nM.

Compound `Cc1ccccc1C1NC(=O)c2cccc(NC(=O)N3CC(=O)Nc4ccccc43)c21` (stereo not drawn) [Compound I-44] registered an IC50 of 10000 to 100000 nM.

Compound `Cc1ccccc1C1NC(=O)c2cccc(NC(=O)c3cnc4ccc(Cl)cn34)c21` (stereo not drawn) [Compound I-47] gave an IC50 of 10000 to 100000 nM.

In turn, `Cc1ccccc1C1NC(=O)c2cccc(NC(=O)c3cnn4ccc(Cl)cc34)c21` (stereo not drawn) [Compound I-48] gave an IC50 of 1000 to 10000 nM.

Take `Cc1cccnc1C1NC(=O)c2cccc(NC(=O)c3csc4ccccc34)c21` (stereo not drawn) [Compound I-49]: the IC50 fell in the range of 1000 to 10000 nM.

Take `Cc1ccccc1C1NC(=O)c2cccc(NC(=O)N3CCCc4ccccc43)c21` (stereo not drawn) [Compound I-55]: the IC50 lay in the range of 1000 to 10000 nM.

Turning to `Cc1ccccc1C1NC(=O)c2cc(NS(C)(=O)=O)cc(NC(=O)c3cc(F)cc(C(F)(F)F)c3)c21` (stereo not drawn) [Compound I-56], the IC50 was 100 to 500 nM.

As for `O=C1NC(c2ncccc2Cl)c2c(NC(=O)c3csc4ccccc34)cccc21` (stereo not drawn) [Compound I-57], the IC50 was in the range of 1000 to 10000 nM.

For `Cc1ccccc1C1NC(=O)c2cccc(NC(=O)c3coc4c(F)cc(F)cc34)c21` (stereo not drawn) [Compound I-58], the IC50 was in the range of 100 to 500 nM.

`Cc1ccccc1C1NC(=O)c2cccc(NC(=O)c3cc(F)cc(OC(F)F)c3)c21` (stereo not drawn) [Compound I-59] displayed an IC50 of 1000 to 10000 nM.

The compound `Cc1ccccc1C1NC(=O)c2cccc(NC(=O)c3ccn4ccccc34)c21` (stereo not drawn) [Compound I-61] returned an IC50 of 100 to 500 nM.

The compound `Cc1ccccc1C1NC(=O)c2cccc(N)c21` (stereo not drawn) [Compound I-62] registered an IC50 of 10000 to 100000 nM.

`Cc1ccccc1C1NC(=O)c2cccc(NC(=O)c3csc4cncnc34)c21` (stereo not drawn) [Compound I-63] yielded an IC50 of 10000 to 100000 nM.

For the compound `Cc1ccccc1-n1[nH]c(=O)c2cccc(N)c21` [Compound I-64], the IC50 lay within 1000 to 10000 nM.

As to `Cc1ccccc1[C@H]1NC(=O)c2cc(N)cc(NC(=O)c3cc(F)cc(C(F)(F)F)c3)c21` [Compound I-65], the IC50 was in the range of 1000 to 10000 nM.

Consider `Cc1ccccc1[C@@H]1NC(=O)c2cc(N)cc(NC(=O)c3cc(F)cc(C(F)(F)F)c3)c21` [Compound I-66], for which the IC50 was at most 100 nM.

As to `Cc1ccccc1C1NC(=O)c2cccc(NC(=O)c3csc4cccc(F)c34)c21` (stereo not drawn) [Compound I-67], the IC50 fell in the range of 1000 to 10000 nM.

Compound `Cc1ccccc1-n1[nH]c(=O)c2cccc(NC(=O)c3csc4ccccc34)c21` [Compound I-68] showed an IC50 of 500 to 1000 nM.

With `Cc1ccccc1C1NC(=O)c2cccc(NC(=O)c3cc(Cl)n4ccccc34)c21` (stereo not drawn) [Compound I-69], the IC50 fell in the range of 100 to 500 nM.

On to `O=C1NC(c2ccccc2OC(F)(F)F)c2c(NC(=O)c3csc4ccccc34)ccnc21` (stereo not drawn) [Compound I-70], for which the IC50 is 1000 to 10000 nM.

For the compound `O=C1NC(c2cc(F)ccc2F)c2c(NC(=O)c3csc4ccccc34)ccnc21` (stereo not drawn) [Compound I-71], the IC50 fell in the range of 500 to 1000 nM.

Regarding `Cc1ccccc1[C@@H]1NC(=O)c2cccc(NC(=O)c3nsc4ccccc34)c21` [Compound I-72], the IC50 is at most 100 nM.

In turn, `Cc1ccccc1[C@H]1NC(=O)c2cccc(NC(=O)c3nsc4ccccc34)c21` [Compound I-73] came in with an IC50 of 500 to 1000 nM.

Regarding `Cc1ccccc1C1NC(=O)c2cccc(NC(=O)c3csc4ccncc34)c21` (stereo not drawn) [Compound I-74], the IC50 is 1000 to 10000 nM.

Consider `CNC(=O)c1cc(NC(=O)c2csc3ccccc23)c2c(c1)C(=O)N[C@@H]2c1ccccc1C` [Compound I-75, (R)-7-(Benzo[b]thiophene-3-carboxamido)-N-methyl-3-oxo-1-(o-tolyl)isoindoline-5-carboxamide], for which the IC50 was 1000 to 10000 nM.

In turn, `CNc1cc(Nc2csc3ccccc23)cc2c1C(=O)NC2c1ccccc1C` (stereo not drawn) [Compound I-77] yielded an IC50 of 1000 to 10000 nM.

For the compound `COc1cccc2scc(C(=O)Nc3cccc4c3C(c3ccccc3C)NC4=O)c12` (stereo not drawn) [Compound I-78], the IC50 is 10000 to 100000 nM.

Compound `COc1ccc2c(C(=O)Nc3cccc4c3C(c3ccccc3C)NC4=O)csc2c1` (stereo not drawn) [Compound I-79] gave an IC50 of 10000 to 100000 nM.

`Cc1ccccc1C1(C)NC(=O)c2cccc(NC(=O)c3csc4ccccc34)c21` (stereo not drawn) [Compound I-80, N-(3-Methyl-1-oxo-3-(o-tolyl)isoindolin-4-yl)benzo[b]thiophene-3-carboxamide]: the IC50 is 10000 to 100000 nM.

As for `Cc1ccccc1C1NC(=O)c2cccc(NC(=O)c3coc4c(F)cc(Cl)cc34)c21` (stereo not drawn) [Compound I-81], the IC50 was at most 100 nM.

In turn, `Cc1ccccc1C1c2c(NC(=O)c3csc4ccccc34)cccc2C(=O)N1C` (stereo not drawn) [Compound I-82] gave an IC50 of 10000 to 100000 nM.

`O=C1NC(c2c(F)cccc2F)c2c(NC(=O)c3nsc4ccccc34)cccc21` (stereo not drawn) [Compound I-84] registered an IC50 of 1000 to 10000 nM.

With `Cn1ncc(C2NC(=O)c3cccc(NC(=O)c4nsc5ccccc45)c32)c1C(F)(F)F` (stereo not drawn) [Compound I-85], the IC50 was 1000 to 10000 nM.

Regarding `Cc1ccccc1C1NC(=O)c2cccc(NC(=O)c3c[nH]c(=O)c(F)c3)c21` (stereo not drawn) [Compound I-86], the IC50 lay in the range of 10000 to 100000 nM.

The compound `Cc1ccccc1C1NC(=O)c2cc(CN)cc(NC(=O)c3csc4ccccc34)c21` (stereo not drawn) [Compound I-88, N-(6-(Aminomethyl)-1-oxo-3-(o-tolyl)isoindolin-4-yl)benzo[b]thiophene-3-carboxamide] yielded an IC50 of at most 100 nM.

`Cc1ccccc1[C@H]1NC(=O)c2cc(N)cc(NC(=O)c3nsc4ccccc34)c21` [Compound I-91] gave an IC50 of 500 to 1000 nM.

`O=C1NC(c2ccccc2Cl)c2c(NC(=O)c3nsc4ccccc34)cc(Cl)nc21` (stereo not drawn) [Compound I-93, N-[2-Chloro-5-(2-chlorophenyl)-7-oxo-5H,6H,7H-pyrrolo[3,4-b]pyridin-4-yl]-1,2-benzothiazole-3-carboxamide] had an IC50 of at most 100 nM.

Consider `O=C1NC(c2ccccc2Cl)c2c(NC(=O)c3nsc4ccccc34)cc(-c3cn[nH]c3)nc21` (stereo not drawn) [Compound I-94, N-(5-(2-Chlorophenyl)-7-oxo-2-(1H-pyrazol-4-yl)-6,7-dihydro-5H-pyrrolo[3,4-b]pyridin-4-yl)benzo[d]isothiazole-3-carboxamide], for which the IC50 lay in the range of 100 to 500 nM.

The compound `Cc1ccccc1C1NC(=O)c2cccc(NC(=O)N3CC(C)c4ccccc43)c21` (stereo not drawn) [Compound I-95] showed an IC50 of 100 to 500 nM.

With `Cc1ccccc1C1NC(=O)c2cccc(NC(=O)N3CCc4ccc(F)cc43)c21` (stereo not drawn) [Compound I-96], the IC50 was in the range of 100 to 500 nM.

For the compound `Cc1ccccc1[C@H]1NC(=O)c2cccc(NC(=O)c3coc4c(F)cc(F)cc34)c21` [Compound I-97], the IC50 was in the range of 10000 to 100000 nM.

`Cc1ccccc1[C@@H]1NC(=O)c2cccc(NC(=O)c3coc4c(F)cc(F)cc34)c21` [Compound I-98] returned an IC50 of 100 to 500 nM.

Consider `O=C1NC(c2c(F)cccc2Cl)c2c(NC(=O)c3nsc4ccccc34)cccc21` (stereo not drawn) [Compound I-99], for which the IC50 was 500 to 1000 nM.

`O=C1NC(c2ccncc2Cl)c2c(NC(=O)c3csc4ccccc34)cccc21` (stereo not drawn) [Compound I-101]: the IC50 is 1000 to 10000 nM.

Regarding `O=C1NC(c2ccc(F)cc2Cl)c2c(NC(=O)c3csc4ccccc34)cccc21` (stereo not drawn) [Compound I-102], the IC50 is at most 100 nM.

Compound `Nc1cccc2c(=O)[nH]n(Cc3ccccc3)c12` [Compound I-103] came in with an IC50 of 10000 to 100000 nM.

`Cc1ccccc1C1NC(=O)c2cccc(NC(=O)N3CCc4c(F)cc(F)cc43)c21` (stereo not drawn) [Compound I-104] displayed an IC50 of 100 to 500 nM.

For `Cc1ccccc1C1NC(=O)c2cccc(NC(=O)c3nsc4ccc(F)cc34)c21` (stereo not drawn) [Compound I-105], the IC50 was 100 to 500 nM.

`Cc1c(F)cccc1C1NC(=O)c2cccc(NC(=O)c3nsc4ccccc34)c21` (stereo not drawn) [Compound I-106] showed an IC50 of 100 to 500 nM.

Turning to `CCOc1ncc(C(=O)Nc2cccc3c2C(c2ccccc2C)NC3=O)cc1F` (stereo not drawn) [Compound I-107], the IC50 fell in the range of 10000 to 100000 nM.

In turn, `Cn1cc(-c2cc(NC(=O)c3nsc4ccccc34)c3c(n2)C(=O)NC3c2ccccc2Cl)cn1` (stereo not drawn) [Compound I-108] displayed an IC50 of 100 to 500 nM.

As for `Cc1ccccc1C1NC(=O)c2cccc(NC(=O)c3cnc(OC(C)C)c(F)c3)c21` (stereo not drawn) [Compound I-109], the IC50 was in the range of 10000 to 100000 nM.

Compound `Cc1ccccc1C1NC(=O)c2cccc(NC(=O)N3CCc4ccc(Cl)cc43)c21` (stereo not drawn) [Compound I-110] yielded an IC50 of 100 to 500 nM.

Take `Cc1ccccc1C1NC(=O)c2cccc(NC(=O)c3cnc(OCC(C)C)c(F)c3)c21` (stereo not drawn) [Compound I-111]: the IC50 was 10000 to 100000 nM.

The compound `Cc1ccccc1C1NC(=O)c2cccc(NC(=O)c3cc(F)cc(C(F)F)c3)c21` (stereo not drawn) [Compound I-112] registered an IC50 of 1000 to 10000 nM.

`Cn1cc(-c2cc(NC(=O)c3nsc4ccccc34)c3c(n2)C(=O)N[C@@H]3c2ccccc2Cl)cn1` [Compound I-113] displayed an IC50 of 100 to 500 nM.

The compound `Cn1cc(-c2cc(NC(=O)c3nsc4ccccc34)c3c(n2)C(=O)N[C@H]3c2ccccc2Cl)cn1` [Compound I-114] returned an IC50 of 1000 to 10000 nM.

The compound `Cc1ccccc1C1NC(=O)c2cc(-c3cnn(C)c3)cc(NC(=O)c3csc4ccccc34)c21` (stereo not drawn) [Compound I-115, N-[6-(1-methyl-1H-pyrazol-4-yl)-3-(2-methylphenyl)-1-oxo-2,3-dihydro-1H-isoindol-4-yl]-1-benzothiophene-3-carboxamide] displayed a 50% inhibitory concentration (IC50) of at most 100 nM.

Compound `Cc1ccccc1C1NC(=O)c2cc(C#N)cc(NC(=O)c3nsc4ccccc34)c21` (stereo not drawn) [Compound I-116] came in with an IC50 of at most 100 nM.

Turning to `Cc1ccccc1-n1[nH]c(=O)c2cccc(NC(=O)c3nsc4ccccc34)c21` [Compound I-117], the IC50 was in the range of 1000 to 10000 nM.
